This note sets out measurements from patent US8679514B2, “Fungicidal mixtures based on azolopyrimidinylamines” (BASF SE, priority 2005, dated 2014).

For one assay, the system named is Botrytis cinerea. In words: Activity against the gray mold pathogen Botrytis cinerea in the microtiter test. The class given is cell-based. As to conditions: Botrytis cinerea, single active compound, read-out: Observed activity (%); for inhibition at 0.25 µg/mL: Conc. 0.25 mg/l; for inhibition at 1 µg/mL: Conc. 1 mg/l; for inhibition at 16 µg/mL: Conc. 16 mg/l.
Assay [1] deals with Phytophthora infestans. In words: whole plant or invertebrate. Type of assay: in vivo. To be noted: 144 h, read-out: Efficacy in % of the untreated control.
For another assay, the system named is Pyricularia oryzae. In words: microbe, parasite or virus in culture. The class given is cell-based. As to conditions: Pyricularia oryzae, read-out: Observed activity (%).
Assay [2] deals with Phytophthora infestans. In words: microbe, parasite or virus in culture. To be noted: for inhibition at 0.016 µg/mL / inhibition at 0.25 µg/mL / inhibition at […] / inhibition at 1 µg/mL / inhibition at 4 µg/mL: Phytophthora infestans, read-out: Observed activity (%). Type of assay: cell-based.
In assay [3] the test system is Plasmopara viticola. Briefly: whole plant or invertebrate. Type of assay: in vivo. As to conditions: read-out: Observed activity (%).
The test system of assay [4] is Phytophthora infestans. In words: whole plant or invertebrate. The class given is in vivo. As to conditions: in vivo.
For assay [5], the system named is Plasmopara viticola. Briefly: whole plant or invertebrate. The class given is in vivo. To be noted: read-out: Observed activity (%). This is another data set of the same source.

Where two headings read alike, the source gives them in different places.

As for `CCCCCCCCc1c(COC)nc2ncnn2c1N` [Compound I-245, 5-methoxymethyl-6-octyl-[1,2,4]triazolo[1,5-a]pyrimidin-7-ylamine], the inhibition at 0.25 µg/mL in the assay on Botrytis cinerea was determined as 0%. For the same molecule, the pest or weed control at 4 ppm in the assay on Phytophthora infestans [1] was determined as 0%. Moreover, in the assay on Pyricularia oryzae, the inhibition at 0.25 µg/mL came to 10% and the inhibition at 16 µg/mL was 23%. In the assay with Phytophthora infestans [2], the inhibition at 0.016 µg/mL was 0%, the inhibition at 0.25 µg/mL amounted to 12% and the inhibition at […] is 0%.

As to `Cc1c(Br)c2ccc(F)cc2n1S(=O)(=O)c1ncn(S(=O)(=O)N(C)C)n1` [amidosulbrom, N,N-dimethyl-3-(3-bromo-6-fluoro-2-methylindole-1-sulfonyl)-[1,2,4]triazole-1-sulfonamide], the inhibition at 4 µg/mL with Plasmopara viticola [3] is 22%.

On to “phosphorous acid disodium salt [phosphorous acid disodium salt (Na2HPO3), reference compound]”, for which the results for the “Observed activity (%)” value with Phytophthora infestans [4] and in the assay on Phytophthora infestans [2] were 33% and 6%, respectively.

Turning to `N#Cc1sc2c(=O)c3ccccc3c(=O)c=2sc1C#N` [dithianon, 5,10-dioxo-5,10-dihydronaphtho[2,3-b][1,4]dithiin-2,3-dicarbonitrile], in the assay with Plasmopara viticola [5], the inhibition at 16 µg/mL was 0%.

`CCNc1nc(CC)c(C(=O)NC(C#N)c2cccs2)s1` (stereo not shown) [ethaboxam, N-(cyano-2-thienylmethyl)-4-ethyl-2-(ethylamino)-5-thiazolcarboxamide]: in the assay with Plasmopara viticola [3], the inhibition at 0.25 µg/mL worked out at 33%.

As to `[Cu+2].[OH-].[OH-]` [Cu(OH)2, copper hydroxide, reference compound], the results for the “Observed activity (%)” value in the assay with Phytophthora infestans [4] and with Phytophthora infestans [2] were 11% and 2%, respectively.

Take `COCC(=O)N(c1c(C)cccc1C)C(C)C(=O)OC` (racemic) [metalaxyl, methyl N-(methoxyacetyl)-N-(2,6-xylyl)-DL-alaninate, reference compound]: in the assay with Phytophthora infestans [1], the pest or weed control at 16 ppm was determined as 33% and the pest or weed control at 63 ppm worked out at 56%. Moreover, the inhibition at 63 µg/mL in the assay with Pyricularia oryzae is 2%. In addition, in the assay on Phytophthora infestans [2], the inhibition at 1 µg/mL was found to be 6% and the inhibition at 4 µg/mL came to 9%.

With `CCCCCCCCc1c(C)nc2ncnn2c1N` [Compound I-25, 5-methyl-6-octyl-[1,2,4]triazolo[1,5-a]pyrimidin-7-ylamine], the inhibition at 0.25 µg/mL with Botrytis cinerea and in the assay on Phytophthora infestans [2] was 5% each time. In addition, in the assay on Phytophthora infestans [1], the pest or weed control at 16 ppm was found to be 0%. Moreover, the inhibition at 1 µg/mL with Pyricularia oryzae came out at 24%; in the assay with Phytophthora infestans [2] it was 13%. Besides, in the assay on Phytophthora infestans [2], the inhibition at […] worked out at 4%.

For `Cc1ccc(C(C)NC(=O)[C@@H](NC(=O)OC(C)C)C(C)C)cc1` (stereo partly drawn) [iprovalicarb, isopropyl [(1S)-2-methyl-1-(1-p-tolylethylcarbamoyl)propyl]carbamate], in the assay with Plasmopara viticola [3], the inhibition at 4 µg/mL was 0%.

Turning to `CCCCCCCCc1c(C(F)(F)F)nc2ncnn2c1N` [Compound I-98, 6-octyl-5-trifluoromethyl-[1,2,4]triazolo[1,5-a]pyrimidin-7-ylamine], in the assay with Botrytis cinerea, the inhibition at 0.25 µg/mL was 4% and the inhibition at 1 µg/mL was 5%. In the assay with Pyricularia oryzae, the inhibition at 0.25 µg/mL amounted to 0%, the inhibition at 1 µg/mL worked out at 0%, the inhibition at 4 µg/mL amounted to 15% and the inhibition at 16 µg/mL amounted to 43%. In the assay on Phytophthora infestans [2], the inhibition at 0.25 µg/mL was 6%, the inhibition at 1 µg/mL was determined as 16%, the inhibition at 4 µg/mL was 22% and the inhibition at […] was determined as 5%.

Regarding `CCc1nc2ncnn2c(N)c1CCC(C)CC(C)(C)C` (stereo not shown) [Compound I-113, 5-ethyl-6-(3,5,5-trimethylhexyl)-[1,2,4]triazolo[1,5-a]pyrimidin-7-ylamine], the pest or weed control at 16 ppm in the assay with Phytophthora infestans [1] amounted to 22%. Besides, in the assay on Pyricularia oryzae, the inhibition at 4 µg/mL worked out at 7%. In the assay on Phytophthora infestans [2], the inhibition at 0.25 µg/mL is 3% and the inhibition at 4 µg/mL was 36%.

As for `Cc1ccc(-c2c(Cl)nc(C#N)n2S(=O)(=O)N(C)C)cc1` [cyazofamid, 4-chloro-2-cyano-N,N-dimethyl-5-(4-methylphenyl)-1H-imidazole-1-sulfon-amide, reference compound], the pest or weed control at 4 ppm with Phytophthora infestans [1] was 33%. The inhibition at 4 µg/mL with Pyricularia oryzae came out at 23%.

Turning to `COC(=O)NCc1cc(C(C)=NOCc2cccc(C)c2)ccc1Cl` [[B-6], methyl (2-chloro-5-[1-(3-methylbenzyloxyimino)-ethyl]benzyl)carbamate, reference compound], the inhibition at 16 µg/mL with Botrytis cinerea is 53%; with Plasmopara viticola [3], 0%. The inhibition at 0.25 µg/mL in the assay with Phytophthora infestans [2] amounted to 10%.

On to “manganese ethylenebis(dithiocarbanate) zinc complex [mancozeb]”, for which, in the assay with Phytophthora infestans [4], the “Observed activity (%)” value was determined as 11%.

In the case of `Cc1nc2ncnn2c(N)c1-c1ccc(C(C)(C)C)cc1` [Compound I-18, 6-(4-tert-butylphenyl)-5-methyl-[1,2,4]triazolo[1,5-a]pyrimidin-7-ylamine], the inhibition at […] in the assay on Botrytis cinerea (Conc. 0.063 mg/l) came out at 6%. Also, in the assay on Botrytis cinerea, the inhibition at 1 µg/mL was 8% and the inhibition at 16 µg/mL was found to be 11%. In addition, in the assay on Phytophthora infestans [1], the pest or weed control at 16 ppm was determined as 11%. For the same molecule, in the assay with Pyricularia oryzae, the inhibition at 0.25 µg/mL stood at 15%, the inhibition at 1 µg/mL was determined as 15%, the inhibition at 4 µg/mL was found to be 18% and the inhibition at 16 µg/mL came out at 29%. For the same molecule, in the assay with Phytophthora infestans [2], the inhibition at 0.25 µg/mL turned out to be 16%, the inhibition at 1 µg/mL turned out to be 45% and the inhibition at […] is 6%.

As for `COC(=O)CC(NC(=O)C(NC(=O)OC(C)C)C(C)C)c1ccc(Cl)cc1` (stereo not shown) [[E-7], methyl 3-(4-chlorophenyl)-3-(2-isopropoxycarbonylamino-3-methyl-butyrylamino)propanoate], the inhibition at 0.25 µg/mL in the assay on Plasmopara viticola [3] was 0%.

Regarding `CC1(c2ccc(Oc3ccccc3)cc2)OC(=O)N(Nc2ccccc2)C1=O` (racemic) [famoxadone, (RS)-3-anilino-5-methyl-5-(4-phenoxyphenyl)-1,3-oxazolidine-2,4-dione], the inhibition at 4 µg/mL in the assay with Plasmopara viticola [3] was 0%.

For `CC(CCc1c(C(F)(F)F)nc2ncnn2c1N)CC(C)(C)C` (stereo not shown) [Compound I-101, 5-trifluoromethyl-6-(3,5,5-trimethylhexyl)-[1,2,4]triazolo[1,5-a]pyrimidin-7-ylamine], the inhibition at 1 µg/mL in the assay on Botrytis cinerea came out at 1%. For the same molecule, in the assay on Pyricularia oryzae, the inhibition at 1 µg/mL was found to be 15%, the inhibition at 4 µg/mL turned out to be 16% and the inhibition at 16 µg/mL stood at 25%. In the assay on Phytophthora infestans [2], the inhibition at 0.25 µg/mL came out at 3% and the inhibition at 4 µg/mL amounted to 9%.

Consider `CCCCCCCCc1c(CCC)nc2ncnn2c1N` [Compound I-180, 6-octyl-5-propyl-[1,2,4]triazolo[1,5-a]pyrimidin-7-ylamine], for which the inhibition at 0.016 µg/mL in the assay with Botrytis cinerea (Conc. 0.016 mg/l) was 3%. For the same molecule, the inhibition at 0.25 µg/mL in the assay with Botrytis cinerea was 13%. Also, in the assay with Phytophthora infestans [1], the pest or weed control at 16 ppm was determined as 0% and the pest or weed control at 63 ppm was determined as 33%. In addition, in the assay on Pyricularia oryzae, the inhibition at 1 µg/mL amounted to 15%. Besides, in the assay on Phytophthora infestans [2], the inhibition at 0.016 µg/mL came out at 0%, the inhibition at 0.25 µg/mL is 8%, the inhibition at 1 µg/mL was found to be 17% and the inhibition at […] was determined as 2%.

Regarding `Cc1nc2ncnn2c(N)c1CCC(C)CC(C)(C)C` (stereo not shown) [Compound I-28, 5-methyl-6-(3,5,5-trimethylhexyl)-[1,2,4]triazolo[1,5-a]pyrimidin-7-ylamine], the inhibition at 4 µg/mL in the assay on Botrytis cinerea (Conc. 4 mg/l) worked out at 0%. Further, the pest or weed control at 63 ppm in the assay on Phytophthora infestans [1] was determined as 44%. For the same molecule, in the assay with Pyricularia oryzae, the inhibition at 0.25 µg/mL turned out to be 12% and the inhibition at 1 µg/mL is 13%. Moreover, in the assay on Phytophthora infestans [2], the inhibition at 0.016 µg/mL was found to be 0%, the inhibition at 0.25 µg/mL stood at 14%, the inhibition at 1 µg/mL was 24% and the inhibition at […] was determined as 0%.
